Assay results taken from US11873295B2, “Allosteric chromenone inhibitors of phosphoinositide 3-kinase (PI3K) for the treatment of disease” (Petra Pharma Corporation, priority 2021, dated 2024).

Tests used:
[1] = target: T1, human full length PIK3KA H1047R mutant (p110α/p85α complex) (Homo sapiens, UniProt P42336, H1047R); assay: PI3K-alpha kinase (PIK3CA) biochemical activity, H1047R mutant, ADP-Glo; settings: PI3K-α (PIK3CA) biochemical, H1047R mutant, Soy PI lipid substrate
T1 construct: Recombinant, catalytically active human full length PIK3KA Wild-type and H1047R mutant were purchased as 1:1 complex; 6xHis (N); purchased EMD Millipore Sigma 14-792M
Method in brief: (§1)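 ADP formation, read by ADP-Glo, is run to about 10% ATP turnover at 27 °C with 20 μM ATP and 50 μM PIP2diC8 or soy PI. WT or H1047R p110α/p85α (1–5 nM) is pre-incubated 1 h with compound in HEPES pH 7.4/MgCl2/Triton buffer, 1% DMSO. 10-point 1:3 series, logistic IC50 versus no-enzyme and DMSO controls.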

[2] = system: PI3K-α (PIK3CA) in MDA-MB-453 cells; assay: PI3K-alpha kinase (PIK3CA) activity in vitro cell based assay, MDA-MB-453 cells, AlphaLisa SureFire; settings: 0% FBS, 3 hours treatment, relative IC50
Protocol: PI3K-Alpha Kinase (PIK3CA) Activity In Vitro Cell Based Assay and Determining IC50 Values for Inhibitors
The MDA-MB-453 (ATCC-HTB-131) cell line was obtained from the American Type Culture Collection (Manassas, VA). Cells were maintained in Dulbecco's Modified Eagle Media (DMEM, Gibco 11965-092) supplemented with 10% Fetal Bovine Serum, heat inactivated (FBS HI, Gibco 10082-147), 1× non-essential amino acids (NEAA, Gibco 11140-050), and 1 mM sodium pyruvate (Gibco 11360-070). Cultures were maintained in a humidified incubator at 37° C. under 5% CO2/95% air.
For compound testing in 0% FBS, MDA-MB-453 cells were seeded at a density of 1.5×10^4 cells per well in white 384-well plates in 20 μl of Minimum Essential Media (MEM) assay media with 1×NEAA, 1 mM sodium pyruvate, and 1 μg/mL human insulin (Sigma I9278). Compounds dissolved in 10 mM stock solutions in DMSO were serially diluted 1:3 in DMSO to generate a 10-point dilution series and plated using an acoustic liquid handler system (Echo 550 Series Liquid Handler, Labcyte). A 5× intermediate compound dilution plate in MEM with 1×NEAA and 1 mM sodium pyruvate (150 μM starting compound concentration in 1.5% DMSO) was then prepared. Five μl of the intermediate serially diluted compounds were added to the cell plate to final concentrations ranging from […] in 0.3% DMSO. 0.3% DMSO alone was used to establish the maximum (MAX) signal and GDC-0032 at a final concentration of 1 μM was used as a reference compound for the minimum (MIN) signal. After 3 hours treatment, the medium was removed, and the cells lysed in 10 μL of 1× SureFire Lysis buffer with shaking for 10 minutes at room temperature. The Acceptor Mix (Reaction Buffer 1+Reaction Buffer 2+Activation Buffer+SureFire Ultra Acceptor Beads) was prepared by diluting Activation buffer 25-fold in combined Reaction Buffer 1 and Reaction Buffer 2. The Acceptor beads were diluted 50-fold in the combined Reaction Buffers. Five μL of Acceptor Mix was added to each well, the plate was sealed and covered with foil and incubated for 1 hour at room temperature. The Donor Mix (dilution buffer+SureFire Ultra Donor Beads) was prepared by diluting Donor Beads 50-fold in dilution buffer. Five μL of the Donor Mix was added to each well and the plate sealed and covered with foil and incubated for 1 hour at room temperature in the dark. The plates were read on a Neo2 plate reader instrument from Biotek using standard AlphaLisa settings. Compounds were tested in duplicate and the average % inhibition at each compound concentration was used to generate a single dose response curve. The data were processed using the Genedata-Screener tool. Relative IC50 values were determined using luminescence units by calculating percent inhibition with respect to the in-plate “MIN” (GDC-0032 reference control) and “MAX” (DMSO) controls. The data was analyzed using a 4-parameter nonlinear logistic equation (four-parameter logistic concentration-response curve): Y=bottom+[(top−bottom)/1+(X/IC50)slope] where Y=% inhibition, X=concentration of inhibitor, bottom=minimum value of y attained by curve-fit, top=maximum value of y attained by curve-fit and slope=steepness of curve at the IC50. % Inhibition=[(signal at X−median Min)/(median Max−median Min)]×100 IC50: concentration of compound that reduces a given response (ligand binding, enzyme response) by 50%. Relative IC50: concentration giving half the compound's maximum response.
For IC50 values shown in Table B, “A” means IC50<50 nM; “B” means IC50 ranging between 50 nM and 100 nM; “C” means IC50 ranging between 100 nM and 500 nM; “D” means IC50>500 nM.

[3] = target: T2, human full length PIK3KA Wild-type (p110α/p85α complex) (Homo sapiens, UniProt P42336); assay: PI3K-alpha kinase (PIK3CA) biochemical activity, wild-type, ADP-Glo; settings: PI3K-α (PIK3CA) biochemical, Soy PI lipid substrate
T2 construct: Recombinant, catalytically active human full length PIK3KA Wild-type and H1047R mutant were purchased as 1:1 complex; 6xHis (N); purchased EMD Millipore Sigma 14-602M
Method in brief: as §1

T1 sequence (P42336 whole entry H1047R): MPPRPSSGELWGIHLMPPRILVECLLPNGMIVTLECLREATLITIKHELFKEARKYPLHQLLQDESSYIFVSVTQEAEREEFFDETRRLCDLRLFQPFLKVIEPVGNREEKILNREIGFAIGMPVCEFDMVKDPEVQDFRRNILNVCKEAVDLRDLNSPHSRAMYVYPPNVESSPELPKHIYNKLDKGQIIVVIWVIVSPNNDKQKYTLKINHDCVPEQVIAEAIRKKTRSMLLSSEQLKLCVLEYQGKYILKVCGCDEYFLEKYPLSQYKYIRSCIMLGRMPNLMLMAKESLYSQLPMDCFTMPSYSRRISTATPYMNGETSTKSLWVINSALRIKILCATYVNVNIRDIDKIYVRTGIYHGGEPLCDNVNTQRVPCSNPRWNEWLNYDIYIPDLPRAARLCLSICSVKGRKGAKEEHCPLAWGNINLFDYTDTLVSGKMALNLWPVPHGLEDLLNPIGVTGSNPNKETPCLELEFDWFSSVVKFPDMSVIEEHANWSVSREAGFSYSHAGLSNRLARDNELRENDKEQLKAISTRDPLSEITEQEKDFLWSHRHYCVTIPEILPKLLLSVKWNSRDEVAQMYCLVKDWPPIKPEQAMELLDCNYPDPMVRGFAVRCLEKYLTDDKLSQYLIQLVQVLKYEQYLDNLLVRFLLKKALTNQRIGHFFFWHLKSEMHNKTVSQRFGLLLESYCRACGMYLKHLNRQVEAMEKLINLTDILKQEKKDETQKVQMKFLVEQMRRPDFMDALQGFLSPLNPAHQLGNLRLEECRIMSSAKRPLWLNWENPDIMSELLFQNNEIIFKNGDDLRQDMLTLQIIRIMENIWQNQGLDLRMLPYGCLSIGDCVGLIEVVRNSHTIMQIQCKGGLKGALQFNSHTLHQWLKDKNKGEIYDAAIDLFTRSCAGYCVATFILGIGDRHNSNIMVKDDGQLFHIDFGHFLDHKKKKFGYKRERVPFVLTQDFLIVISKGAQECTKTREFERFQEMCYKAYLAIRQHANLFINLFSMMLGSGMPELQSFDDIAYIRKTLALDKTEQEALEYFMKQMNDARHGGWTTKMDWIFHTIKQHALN
T1 sequence (P27986 whole entry partner): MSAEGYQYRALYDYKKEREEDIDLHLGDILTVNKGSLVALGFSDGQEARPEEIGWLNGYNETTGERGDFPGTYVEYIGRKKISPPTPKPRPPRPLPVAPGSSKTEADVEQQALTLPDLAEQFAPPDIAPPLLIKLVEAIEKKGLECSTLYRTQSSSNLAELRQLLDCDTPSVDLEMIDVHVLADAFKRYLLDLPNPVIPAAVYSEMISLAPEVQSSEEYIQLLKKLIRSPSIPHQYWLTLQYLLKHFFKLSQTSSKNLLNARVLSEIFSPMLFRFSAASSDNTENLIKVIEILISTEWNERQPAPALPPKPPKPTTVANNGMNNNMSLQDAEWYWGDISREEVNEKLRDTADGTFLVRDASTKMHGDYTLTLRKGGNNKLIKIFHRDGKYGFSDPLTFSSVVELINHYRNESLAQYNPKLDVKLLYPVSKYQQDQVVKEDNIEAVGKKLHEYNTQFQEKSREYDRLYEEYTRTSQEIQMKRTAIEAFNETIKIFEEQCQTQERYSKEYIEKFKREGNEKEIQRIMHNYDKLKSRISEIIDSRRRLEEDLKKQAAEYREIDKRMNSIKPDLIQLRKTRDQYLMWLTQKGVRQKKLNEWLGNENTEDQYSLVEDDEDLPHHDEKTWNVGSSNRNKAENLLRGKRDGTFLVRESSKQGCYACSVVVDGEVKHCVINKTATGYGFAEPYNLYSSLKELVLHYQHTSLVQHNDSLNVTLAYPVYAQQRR

Row | Structure (SMILES) | IC50 [1] [µM] | IC50 ([2]; Homo sapiens, MDA-MB-453, 3 h) [µM] | IC50 [3] [µM] | IC50 [2] [µM]
1 | Cc1cc([C@@H](C)Nc2ccc(C(F)(F)F)cc2C(=O)O)c2oc(-c3ccccc3)c(C)c(=O)c2c1 [Example 37, 2-[[(1R)-1-(3,6-Dimethyl-4-oxo-2-phenyl-chromen-8-yl)ethyl]amino]-5-(trifluoromethyl)benzoic acid] | 0.5 to 1 | 0.1 to 0.5 | 1 to 5 | 
2 | Cc1cc([C@@H](C)Nc2ccccc2C(=O)O)c2oc(-c3cccc(F)c3F)c(C)c(=O)c2c1 [Example 92, 2-[[(1R)-1-[2-(2,3-Difluorophenyl)-3,6-dimethyl-4-oxo-chromen-8-yl]ethyl]amino]benzoic acid 2,2,2-trifluoroacetic acid] | < 0.5 | < 0.05 | 5 to 10 | 
3 | Cc1cc([C@@H](C)Nc2ccccc2C(=O)O)c2oc(-c3ccc(C#N)cc3)c(C)c(=O)c2c1 [Example 31, 2-[[(1R)-1-[2-(4-Cyanophenyl)-3,6-dimethyl-4-oxo-chromen-8-yl]ethyl]amino]benzoic acid] | < 0.5 | < 0.05 | 1 to 5 | 
4 | Cc1cc([C@@H](C)Nc2ccccc2C(=O)O)c2oc(-c3ccc(F)c(F)c3)cc(=O)c2c1 [Example 63, 2-[[(1R)-1-[2-(3,4-DifIuorophenyl)-6-methyl-4-oxo-chromen-8-yl]ethyl]amino]benzoic acid 2,2,2-trifluoroacetic acid] | < 0.5 | < 0.05 | 1 to 5 | 
5 | Cc1c(-c2ccc(F)c(F)c2)oc2c([C@@H](C)Nc3ccc(Cl)nc3C(=O)O)cc(C(F)(F)F)cc2c1=O [Example 96, 6-Chloro-3-[[(1R)-1-[2-(3,4-difluorophenyl)-3-methyl-4-oxo-6-(trifluoromethyl)-chromen-8-yl]ethyl]amino]pyridine-2-carboxylic acid] | < 0.5 | < 0.05 | 1 to 5 | 
6 | Cc1cc([C@@H](C)Nc2ccc(Cl)nc2C(=O)O)c2oc(-c3cccc(C#N)c3)c(C)c(=O)c2c1 [Example 121, 6-Chloro-3-[[(1R)-1-[2-(3-cyanophenyl)-3,6-dimethyl-4-oxo-chromen-8-yl]ethyl]amino]pyridine-2-carboxylic acid] | < 0.5 |  | 0.5 to 1 | < 0.05
7 | Cc1cc(C(C)Nc2ccccc2C(=O)O)c2oc(-c3ccc(C4(C#N)CC4)cc3)cc(=O)c2c1 (single isomer, unassigned; isomer 1) [Example 52, 2-[1-[2-[4-(l-Cyanocyclopropyl)phenyl]-6-methyl-4-oxo-chromen-8-yl]ethylamino]benzoic acid, Isomer 1] | 5 to 10 | > 0.5 | 5 to 10 | 
8 | Cc1cc([C@@H](C)Nc2ccc(Cl)cc2C(=O)O)c2oc(-c3ccccc3)c(C)c(=O)c2c1 [Example 41, 5-Chloro-2-[[(1R)-1-(3,6-dimethyl-4-oxo-2-phenyl-chromen-8-yl)ethyl]amino]benzoic acid] | < 0.5 | < 0.05 | 1 to 5 | 
9 | Cc1cc(C(C)Nc2ccccc2C(=O)O)c2oc(-c3ccccc3)c(F)c(=O)c2c1 (stereo not drawn) [Example 111, 2-[1-(3-Fluoro-6-methyl-4-oxo-2-phenyl-chromen-8-yl)ethylamino]benzoic acid 2,2,2-trifluoroacetic acid] | < 0.5 | < 0.05 | 1 to 5 | 

Further lines, results first:

Row | IC50 [1] [µM] | IC50 ([2]; Homo sapiens, MDA-MB-453, 3 h) [µM] | IC50 [3] [µM] | IC50 [2] [µM] | Structure (SMILES)
10 | < 0.5 | < 0.05 | > 10 |  | CNC(=O)c1cccc(-c2oc3c([C@@H](C)Nc4ccccc4C(=O)O)cc(C)cc3c(=O)c2C)c1 [Example 152, 2-[[(1R)-1-[3,6-Dimethyl-2-[3-(methylcarbamoyl)phenyl]-4-oxo-chromen-8-yl]ethyl]amino]benzoic acid]
11 | < 0.5 | 0.05 to 0.1 | 1 to 5 |  | Cc1cc([C@@H](C)Nc2ccc(C(F)(F)F)cc2C(=O)O)c2oc(-c3cccc(C#N)c3)c(C)c(=O)c2c1 [Example 128, 2-[[(1R)-1-[2-(3-Cyanophenyl)-3,6-dimethyl-4-oxo-chromen-8-yl]ethyl]amino]-5-(trifluoromethyl)benzoic acid]
12 | < 0.5 | 0.1 to 0.5 | 1 to 5 |  | COc1ncc(N[C@H](C)c2cc(C)cc3c(=O)c(C)c(-c4ccccc4)oc23)c(C(=O)O)n1 [Example 155, 2-Methoxy-5-[[(1R)-1-(3,6-dimethyl-4-oxo-2-phenyl-chromen-8-yl)ethyl]amino]pyrimidine-4-carboxylic acid 2,2,2-trifluoroacetic acid]
13 | < 0.5 |  | 1 to 5 | 0.05 to 0.1 | Cc1cc(C(C)Nc2ccccc2C(=O)O)c2oc(-c3ccccc3)c(F)c(=O)c2c1 (single isomer, unassigned; isomer 2) [Example 133, 2-[1-(3-Fluoro-6-methyl-4-oxo-2-phenyl-chromen-8-yl)ethylamino]benzoic acid, Isomer 2]
14 | 0.5 to 1 | 0.1 to 0.5 | 1 to 5 |  | Cc1cc([C@@H](C)Nc2ccccc2C(=O)O)c2oc(-c3ccccc3)c(-c3cccnc3)c(=O)c2c1 [Example 156, 2-[[(1R)-1-[6-Methyl-4-oxo-2-phenyl-3-(3-pyridyl)chromen-8-yl]ethyl]amino]benzoic acid 2,2,2-trifluoroacetic acid]
15 | < 0.5 | < 0.05 | 1 to 5 |  | Cc1cc([C@@H](C)Nc2ccccc2C(=O)O)c2oc(-c3ccc(-c4c(C)n[nH]c4C)cc3)c(C)c(=O)c2c1 [Example 165, 2-[[(1R)-1-[2-[4-(3,5-Dimethyl-1H-pyrazol-4-yl)phenyl]-3,6-dimethyl-4-oxo-chromen-8-yl]ethyl]amino]benzoic acid]
16 | < 0.5 | < 0.05 | 1 to 5 |  | Cc1cc([C@@H](C)Nc2ccc(Cl)cc2C(=O)O)c2oc(-c3cccc(F)c3)c(C)c(=O)c2c1 [Example 145, 5-Chloro-2-[[(1R)-1-[2-(3-fluorophenyl)-3,6-dimethyl-4-oxo-chromen-8-yl]ethyl]amino]benzoic acid]
17 | 0.5 to 1 | < 0.05 | 1 to 5 |  | Cc1cc([C@@H](C)Nc2ccc(Cl)cc2C(=O)O)c2oc(-c3ccccc3F)c(C)c(=O)c2c1 [Example 147, 5-Chloro-2-[[(1R)-1-[2-(2-fluorophenyl)-3,6-dimethyl-4-oxo-chromen-8-yl]ethyl]amino]benzoic acid]
18 | < 0.5 | < 0.05 | 0.5 to 1 |  | Cc1cc([C@@H](C)Nc2ccccc2C(=O)O)c2oc(-c3cccc(-c4cn[nH]c4)c3)c(C)c(=O)c2c1 [Example 167, 2-[[(1R)-1-[3,6-Dimethyl-4-oxo-2-[3-(1H-pyrazol-4-yl)phenyl]chromen-8-yl]ethyl]amino]benzoic acid]
